{"source": "patent US7282339B2", "about": "“Competitive immunoassay” (Invitrogen Corporation, priority 2003, dated 2007)", "tested_on": "ligand-detection complex of Compound 15 and P-Tyr-100 antiphosphotyrosine monoclonal antibody", "experiment": "Displacement of phosphotyramide-dye ligand analog by phosphotyrosine (Example 21)", "type": "binding, mouse", "conditions": "10 μM", "procedure": "Solutions containing 100 nM ligand analog Compound 15 or ligand-detection complex (100 nM (B573-85-HCK)+100 nM P-Tyr-100 antiphosphotyrosine monoclonal antibody (Cell Signaling Technology, Beverly, Mass.)) were prepared in 50 mM Tris-HCl pH 7.5, 10 mM MgCl2, 0.01% Brij-35, 100 μM ATP, 2 mM DTT, 1 mM EGTA. Fluorescence emission spectra of these samples were recorded on a Hitach F-4500 spectrofluorometer using an excitation wavelength of 470 nm. O-phosho-L-tyrosine (Sigma Chemical Co., St. Louis, Mo.) or phosphotyrosine peptide (phospho-pp60 c-src (521-533); TSTEPQY*QPGENL, Bachem California, Inc. Torrance, Calif.) at a concentration of 10 μM were added to samples of the detection complex and the resulting change in fluorescence was measured. See, FIG. 13."}
{"smiles": "N[C@@H](Cc1ccc(OP(=O)(O)O)cc1)C(=O)O", "note": "[Phosphotyrosine, O-phosho-L-tyrosine]", "values": [{"measurement": "displacement of phosphotyramide-dye ligand analog from antibody binding sites", "result": "Minimal Displacement"}]}
